Results on two molecules are retold here after US7638056B2, “Treatment of sewage sludge” (Rhodia Operations, priority 2003, dated 2009).

In the experiment the test system is E. coli. The note with it: for time/kill response over the first 6 hours contact time / contact time to total kill: FIG. 1; for contact time to total kill: sterile sludge, 22° C., about 10^8 cells per ml. An excerpt: The methodology adopted to evaluate biocide performance was by Quantitative Suspension Test (QST) using sterile anaerobic digester sludge as the QST medium, back-inoculated with E. coli cultures previously isolated from the sludge. In this way, a consistent chemical environment (sterile sludge) could be used in conjunction with a defined bacterial challenge. This enables the provision of consistency between tests.
The E. coli strains used in QST had been isolated from raw-sludge samples.
QST were performed as follows: • Sterile sludge (19 ml) was dispensed into sterile, screw-cap, plastics universal bottles of nominal 30 ml capacity. • To each sample was added 0.5 ml of a washed cell suspension of E. coli prepared from a 16-hour culture incubated at 44° C. in Tryptose Soy Broth, which had been centrifuged (14500 rpm for 10 min.) and re-suspended in sterile phosphate buffer (0.2M at pH 7.2). An inoculum of 0.5 ml was sufficient to provide a final cell concentration of about 10^8 per ml in 20 ml of QST medium. • Fresh stock solutions of the candidate treatment chemicals were prepared in sterile phosphate buffer (0.2M at pH 7.2) at concentrations such that when 0.5 ml was added to the QST medium (final volume 20 ml) the desired final concentration of biocide was achieved. • The QST medium was mixed thoroughly and held at 22° C. for the duration of the test. • At intervals during the test, the sludge was well mixed and samples (1.0 ml) were removed from the QST medium and inoculated into the first tube of a dilution series containing MacConkey broth supplemented with sodium thiosulphate (5.0 g/l), to inactivate any residual biocide carried into the dilution series.
The end point was scored as the highest dilution in the series to show a change in colour from purple to yellow and to have developed turbidity.
MacConkey Broth was selected as this medium contains the pH indicator Bromocresol Purple that changes from purple to yellow as the medium becomes acidic. This is a useful indirect indicator of microbial growth (organic acid production) where this cannot be scored by the development of turbidity in an initially clear medium. Because the sludge contains suspended solids the first 2 tubes of the dilution series instantaneously develop turbidity on the addition of the sludge. This precludes using turbidity alone as an indicator of microbial growth.

Read-outs that look alike come from different tables or passages of the source.

On to `N#CC(Br)(Br)C(N)=O` [DBNPA, dibromo-nitrilo-propionamide, reference compound], for which the “log reduction in numbers” value (500 mg/l active ingredient, after 48 hours, FIG. 3) is listed as 2.5 log.
Regarding “tetrakis(hydroxymethyl) phosphonium sulphate [Phosphonium Salt]”, the “time/kill response over the first 6 hours contact time” value by setting is: (250 mg/l) “fairly flat”; (500 mg/l) “fairly flat”; (1000 mg/l) “more progressive”. The “contact time to total kill” value is not above 48 h (250 mg/l), not above 48 h (500 mg/l) and not above 24 h (1000 mg/l). Further, the “anti-microbial performance (Phosphonium Salt compared with DBNPA)” value (equal active-ingredient concentration of 500 mg/l, FIG. 3) is listed as “superior”.
